One block for each compound: values may come before it.
Columns and labels:
[1] = system: hepatocellular carcinoma tumor cell Huh7 xenografts; assay: Growth inhibition of Huh7 xenografts in tumor-bearing BALB/c nude mice; assay type: in vivo; conditions: bid
Procedure: On day 0, Huh7 cells were cultured in DMEM medium containing 10% of fetal bovine serum, 100 U of penicillin, and 100 μg/mL of streptomycin. And cultured in an incubator of 37° C., 5% CO2.
Each mouse was inoculated subcutaneously in the right axilla with 150 μL of cell suspension (5.0×10^6 cells/mouse) under sterile conditions. On day 12 after inoculation, when the tumor grew to a volume of 200-300 mm^3, mice with similar tumor volume and good shape were selected (the shape was as single spherical as possible, no irregular shape or multiple tumors gathered together) and divided into 5 groups, each group had 9 mice.
(§1) Each group of animals was administrated (intraperitoneal injection (ip) or oral administration (po)) a test substance twice a day (bid) at a fix time per day according to the body weight of the animals. The first dose was administered on the day of grouping ([…]), and continued for 22 days, the body weight of the animals was recorded daily.
The formation of tumor in the inoculated part of each group of animals was observed. The long diameter (Y) and short diameter (X) of the tumor nodules were measured twice a week using vernier calipers and calculated according to the following formula: Volume of tumor nodules(V): V=(X^2Y)/2.
Evaluation index of antitumor activity: tumor growth inhibition rate TGI (%), relative tumor proliferation rate T/C (%).
The relative tumor volume (RTV) is calculated as: RTV=100×TVt/TVinitial
wherein, TVinitial is the tumor volume measured at the time of grouping administration; TVt is the tumor volume at each measurement during administration.
The calculation formula for the relative tumor proliferation rate (% T/C) is: % T/C=100%×(RTVT/RTVC)
wherein, RTVT represents RTV of the treatment group; RTVC represents RTV of the solvent control group.
wherein, TVt(T) represents the tumor volume at each measurement in the treatment group; TVinitial(T) represents the tumor volume of the treatment group at the time of grouping administration; TVt(C) represents the tumor volume at each measurement in the solvent control group; TVinitial(C) represents the tumor volume of the solvent control group at the time of grouping administration.
wherein, WC represents the tumor weight of the control group; WT represents the tumor weight of the treatment group.

[2] = system: hepatocellular carcinoma tumor cells Huh7; assay: Huh7 tumor cell proliferation inhibition (CCK-8); assay type: cell-based, human; conditions: 72 hours culture
Procedure: For the FGFR4 subtype, hepatocellular carcinoma tumor cells Huh7 (purchased from the Cell Resource Center of Shanghai Institutes for Biological Sciences, Chinese Academy of Sciences) were used to determine the inhibition against the activity of hepatocellular carcinoma tumor cells. Huh7 cells were cultured in a DMEM medium containing 10% of fetal bovine serum, 100 U of penicillin and 100 μg/mL of streptomycin. Cultured in an incubator of 37° C., 5% CO2. Hepatocellular carcinoma tumor cell activity was measured by using a kit of Cell Counting Kit-8 (Dojindo, Dojindo Molecular Technologies, Inc).
The experimental method was carried out according to the steps of the kit instructions, and is briefly described as follows: the test compound was first dissolved in DMSO to prepare a stock solution, and then gradiently diluted with the corresponding medium of the cells to prepare a test sample, and the final concentration of the compound was in the range of 30 μM to 0.01 nM. Tumor cells in the logarithmic phase were seeded into 96-well cell culture plates at a suitable density, cultured in an incubator of 37° C., 5% CO2 overnight, then test compound samples were added and continued to culture the cells for 72 hours.

[3] = Body weight and weight loss rate of Huh7 tumor-bearing BALB/c nude mice during administration; assay type: in vivo; conditions: 25 mg/kg IP, bid
Procedure: as §1
The calculation formula for the weight loss rate of animals is (see FIG. 3 for the results): Weight loss rate of animals=100%×(BWinitial−BWt)/BWinitial
wherein, BWt represents the body weight of the animal at each measurement during administration; BWinitial represents the body weight of the animal at the time of grouping administration.

[4] = 25 mg/kg IP, end of the experiment

SMILES: C=CC(=O)Nc1cc(N2CCN(CC)C3(CC3)C2)ccc1Nc1cc(N(C)C(=O)Nc2c(Cl)c(OC)cc(OC)c2Cl)ncn1 [Example 5, N-(2-((6-(3-(2,6-Dichloro-3,5-dimethoxyphenyl)-1-methylureido)pyrimidin-4-yl)amino)-5-(4-ethyl-4,7-diazaspiro[2.5]octan-7-yl)phenyl)acrylamide]
- Tumor weight (g) Mean ± standard error [1, 4]: 0.8393 ± 0.0602 g
- Tumor weight (g) Mean ± standard error ([1]; 50 mg/kg IP, end of the experiment): 0.6473 ± 0.0597 g
- Tumor weight (g) Mean ± standard error ([1]; 300 mg/kg PO, end of the experiment): 0.0562 ± 0.0069 g

- IC50 [2]: 18 nM
SMILES: C=CC(=O)Nc1cc(N2CCN(CC)CC2)ccc1Nc1cc(N(C)C(=O)Nc2c(Cl)c(OC)cc(OC)c2Cl)ncn1 [Example 108 of WO2015057938, reference compound]
- Tumor growth inhibition rate (TGI %) ([1]; 25 mg/kg IP, Day 16 after inoculation): 34%
- Tumor growth inhibition rate (TGI %) ([1]; 25 mg/kg IP, Day 20 after inoculation): 21%
- Tumor growth inhibition rate (TGI %) ([1]; 25 mg/kg IP, Day 23 after inoculation): 21%
- Tumor growth inhibition rate (TGI %) ([1]; 25 mg/kg IP, Day 27 after inoculation): 29%
- Tumor growth inhibition rate (TGI %) ([1]; 25 mg/kg IP, Day 30 after inoculation): 24%
- Tumor growth inhibition rate (TGI %) ([1]; 25 mg/kg IP, Day 34 after inoculation): 16%
- Tumor weight (g) Mean ± standard error [1, 4]: 0.9106 ± 0.0583 g
- Tumor weight inhibition rate (%) [1, 4]: 2.2%
- Animal body weight ± standard error ([3]; Day 13 after inoculation): 18.0 ± 0.3 g
- weight loss rate (%) ([3]; Day 13 after inoculation): 0%
- Animal body weight ± standard error ([3]; Day 16 after inoculation): 18.1 ± 0.3 g
- weight loss rate (%) ([3]; Day 16 after inoculation): −0.62%
- Animal body weight ± standard error ([3]; Day 20 after inoculation): 19.2 ± 0.4 g
- weight loss rate (%) ([3]; Day 20 after inoculation): −6.7%
- Animal body weight ± standard error ([3]; Day 23 after inoculation): 18.3 ± 0.2 g
- weight loss rate (%) ([3]; Day 23 after inoculation): −2.0%
- Animal body weight ± standard error ([3]; Day 27 after inoculation): 18.4 ± 0.3 g
- weight loss rate (%) ([3]; Day 27 after inoculation): −2.7%
- Animal body weight ± standard error ([3]; Day 30 after inoculation): 18.7 ± 0.2 g
- weight loss rate (%) ([3]; Day 30 after inoculation): −4.2%
- Animal body weight ± standard error ([3]; Day 34 after inoculation): 18.9 ± 0.3 g
- weight loss rate (%) ([3]; Day 34 after inoculation): −5.0%

Source: patent US10654836B2, “Pyrimidine derivative, method for preparing same and use thereof in medicine” (Zhejiang Hisun Pharmaceutical Co., Ltd., priority 2016, dated 2020)
